According to patent US11161846B2, “Substituted pyrazolo[4,3-b]pyridines and their use as GluN2B receptor modulators” (JANSSEN PHARMACEUTICA NV, priority 2019, dated 2021):

biological target: T1, human GluN1/GluN2B NMDA receptors (Homo sapiens, UniProt Q05586+Q13224); assay: Calcium flux (FLIPR) assay on cloned human NR1/GluN2B ion channels expressed in mammalian cells, standard assay; type: cell-based; settings: glutamate ~EC40 and 10 μM glycine, stable cell line with Tet-On induced expression
T1 construct: expressed in transfected cells
T1 sequence (Q13224 27-1484, other chains not shown): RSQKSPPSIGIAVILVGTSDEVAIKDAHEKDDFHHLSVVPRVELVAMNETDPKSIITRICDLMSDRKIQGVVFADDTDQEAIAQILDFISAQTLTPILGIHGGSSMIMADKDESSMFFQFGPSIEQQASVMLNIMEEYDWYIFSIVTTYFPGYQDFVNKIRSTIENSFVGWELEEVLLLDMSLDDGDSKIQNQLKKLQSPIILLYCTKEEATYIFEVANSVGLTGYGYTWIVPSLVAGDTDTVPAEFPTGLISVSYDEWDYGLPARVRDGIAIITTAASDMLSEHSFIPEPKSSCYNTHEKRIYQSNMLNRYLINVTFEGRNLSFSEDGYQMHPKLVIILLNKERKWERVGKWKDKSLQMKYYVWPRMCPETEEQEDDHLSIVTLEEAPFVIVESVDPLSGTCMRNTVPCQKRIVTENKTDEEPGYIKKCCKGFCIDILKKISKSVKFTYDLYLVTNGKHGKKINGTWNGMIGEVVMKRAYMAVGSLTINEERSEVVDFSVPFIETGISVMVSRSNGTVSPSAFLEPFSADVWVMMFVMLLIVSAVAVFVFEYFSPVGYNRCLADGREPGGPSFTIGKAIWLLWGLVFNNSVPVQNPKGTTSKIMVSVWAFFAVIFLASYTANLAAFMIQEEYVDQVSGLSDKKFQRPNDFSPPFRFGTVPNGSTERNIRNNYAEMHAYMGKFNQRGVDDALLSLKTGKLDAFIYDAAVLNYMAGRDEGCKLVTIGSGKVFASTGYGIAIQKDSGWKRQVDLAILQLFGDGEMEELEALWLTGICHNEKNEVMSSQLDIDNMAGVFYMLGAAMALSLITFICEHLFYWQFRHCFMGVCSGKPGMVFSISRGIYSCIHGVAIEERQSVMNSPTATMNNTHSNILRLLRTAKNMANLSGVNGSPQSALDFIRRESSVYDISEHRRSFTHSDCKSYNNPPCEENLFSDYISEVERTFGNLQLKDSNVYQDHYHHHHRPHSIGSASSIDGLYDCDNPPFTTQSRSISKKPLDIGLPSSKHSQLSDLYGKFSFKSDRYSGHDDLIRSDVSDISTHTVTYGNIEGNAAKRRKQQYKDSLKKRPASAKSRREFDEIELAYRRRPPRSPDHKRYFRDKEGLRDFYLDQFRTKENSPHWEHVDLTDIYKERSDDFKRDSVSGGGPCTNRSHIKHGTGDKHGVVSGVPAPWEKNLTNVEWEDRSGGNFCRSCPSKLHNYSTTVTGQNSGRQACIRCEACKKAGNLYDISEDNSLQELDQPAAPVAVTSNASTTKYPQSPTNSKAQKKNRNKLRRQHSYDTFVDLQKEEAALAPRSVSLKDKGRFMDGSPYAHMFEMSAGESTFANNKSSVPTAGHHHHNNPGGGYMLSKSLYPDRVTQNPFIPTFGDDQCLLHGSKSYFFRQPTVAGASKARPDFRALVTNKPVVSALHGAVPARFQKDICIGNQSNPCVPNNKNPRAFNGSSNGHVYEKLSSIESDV
Summary of the method: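 Tet-On-induced stable mammalian line loaded with Calcium 5 dye (0.5 mM MgCl2 loading buffer), then assayed in pH 7.4 buffer with 137 mM NaCl, 4 mM KCl, 2 mM CaCl2. Compound was added for 5 min, then glutamate (~EC40) plus 10 µM glycine for 5 min. FLIPR fluorescence was normalized to control wells.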

Structure (SMILES) | IC50
CCC(=O)Cn1ncc2ncc(-c3ccc(Cl)c(OC(F)F)c3)cc21 [Example 41, 1-[6-[4-Chloro-3-(difluoromethoxy)phenyl]pyrazolo[4,3-b]pyridin-1-yl]butan-2-one] | 21 nM
CCC(=O)Cn1ncc2ncc(-c3ccc(F)c(F)c3F)cc21 [Example 43, 1-[6-(2,3,4-Trifluorophenyl)pyrazolo[4,3-b]pyridin-1-yl]butan-2-one] | 28 nM
CC(C)C(=O)Cn1ncc2ncc(-c3ccccc3)cc21 [Example 44, 3-Methyl-1-(6-phenylpyrazolo[4,3-b]pyridin-1-yl)butan-2-one] | 89 nM
CC(C)C(=O)Cn1ncc2ncc(-c3ccc(F)cc3)cc21 [Example 45, 1-[6-(4-Fluorophenyl)pyrazolo[4,3-b]pyridin-1-yl]-3-methyl-butan-2-one] | 36 nM
CC(C)C(=O)Cn1ncc2ncc(-c3cccc(F)c3)cc21 [Example 46, 1-[6-(3-Fluorophenyl)pyrazolo[4,3-b]pyridin-1-yl]-3-methyl-butan-2-one] | 30 nM
CC(C)C(=O)Cn1ncc2ncc(-c3cccc(C(F)F)c3)cc21 [Example 47, 1-[6-[3-(Difluoromethyl)phenyl]pyrazolo[4,3-b]pyridin-1-yl]-3-methyl-butan-2-one] | 23 nM
CC(C)C(=O)Cn1ncc2ncc(-c3cccc(F)c3F)cc21 [Example 48, 1-[6-(2,3-Difluorophenyl)pyrazolo[4,3-b]pyridin-1-yl]-3-methyl-butan-2-one] | 172 nM
CC(C)C(=O)Cn1ncc2ncc(-c3ccc(F)c(F)c3)cc21 [Example 49, 1-[6-(3,4-Difluorophenyl)pyrazolo[4,3-b]pyridin-1-yl]-3-methyl-butan-2-one] | 25 nM
CC(C)C(=O)Cn1ncc2ncc(-c3cccc(C(F)(F)F)c3F)cc21 [Example 50, 1-[6-[2-Fluoro-3-(trifluoromethyl)phenyl]pyrazolo[4,3-b]pyridin-1-yl]-3-methyl-butan-2-one] | 76 nM
CC(C)C(=O)Cn1ncc2ncc(-c3ccc(F)c(C(F)(F)F)c3)cc21 [Example 51, 1-[6-[4-Fluoro-3-(trifluoromethyl)phenyl]pyrazolo[4,3-b]pyridin-1-yl]-3-methyl-butan-2-one] | 296 nM
Cc1cc(F)ccc1-c1cnc2cnn(CC(=O)C(C)C)c2c1 [Example 52, 1-[6-(4-Fluoro-2-methyl-phenyl)pyrazolo[4,3-b]pyridin-1-yl]-3-methyl-butan-2-one] | 90 nM
CC(C)C(=O)Cn1ncc2ncc(-c3cc(F)c(F)c(F)c3)cc21 [Example 53, 3-Methyl-1-[6-(3,4,5-trifluorophenyl)pyrazolo[4,3-b]pyridin-1-yl]butan-2-one] | 41 nM
CC(C)C(=O)Cn1ncc2ncc(-c3ccc(F)c(F)c3F)cc21 [Example 54, 3-Methyl-1-[6-(2,3,4-trifluorophenyl)pyrazolo[4,3-b]pyridin-1-yl]butan-2-one] | 205 nM
O=C(Cn1ncc2ncc(-c3ccc(Cl)s3)cc21)C1CC1 [Example 55, 2-[6-(5-Chloro-2-thienyl)pyrazolo[4,3-b]pyridin-1-yl]-1-cyclopropyl-ethanone] | 8 nM
Cc1ccc(-c2cnc3cnn(CC(=O)C4CC4)c3c2)s1 [Example 56, 1-Cyclopropyl-2-[6-(5-methyl-2-thienyl)pyrazolo[4,3-b]pyridin-1-yl]ethanone] | 15 nM
O=C(Cn1ncc2ncc(-c3cccc(F)c3)cc21)C1CC1 [Example 57, 1-Cyclopropyl-2-[6-(3-fluorophenyl)pyrazolo[4,3-b]pyridin-1-yl]ethanone] | 26 nM
O=C(Cn1ncc2ncc(-c3ccccc3F)cc21)C1CC1 [Example 58, 1-Cyclopropyl-2-[6-(2-fluorophenyl)pyrazolo[4,3-b]pyridin-1-yl]ethanone] | 148 nM
O=C(Cn1ncc2ncc(-c3ccc(F)cc3)cc21)C1CC1 [Example 59, 1-Cyclopropyl-2-[6-(4-fluorophenyl)pyrazolo[4,3-b]pyridin-1-yl]ethanone] | 13 nM
Cc1cccc(-c2cnc3cnn(CC(=O)C4CC4)c3c2)c1 [Example 60, 1-Cyclopropyl-2-[6-(m-tolyl)pyrazolo[4,3-b]pyridin-1-yl]ethanone] | 8 nM
O=C(Cn1ncc2ncc(-c3cccc(C(F)(F)F)c3)cc21)C1CC1 [Example 62, 1-Cyclopropyl-2-[6-[3-(trifluoromethyl)phenyl]pyrazolo[4,3-b]pyridin-1-yl]ethanone] | 46 nM
O=C(Cn1ncc2ncc(-c3cccc(OC(F)(F)F)c3)cc21)C1CC1 [Example 63, 1-Cyclopropyl-2-[6-[3-(trifluoromethoxy)phenyl]pyrazolo[4,3-b]pyridin-1-yl]ethanone] | 31 nM
O=C(Cn1ncc2ncc(-c3cccc(F)c3F)cc21)C1CC1 [Example 64, 1-Cyclopropyl-2-[6-(2,3-difluorophenyl)pyrazolo[4,3-b]pyridin-1-yl]ethanone] | 37 nM

Structure (SMILES) | IC50
O=C(Cn1ncc2ncc(-c3ccc(F)c(F)c3)cc21)C1CC1 [Example 65, 1-Cyclopropyl-2-[6-(3,4-difluorophenyl)pyrazolo[4,3-b]pyridin-1-yl]ethanone] | 13 nM
O=C(Cn1ncc2ncc(-c3cc(F)cc(F)c3)cc21)C1CC1 [Example 66, 1-Cyclopropyl-2-[6-(3,5-difluorophenyl)pyrazolo[4,3-b]pyridin-1-yl]ethanone] | 19 nM
O=C(Cn1ncc2ncc(-c3cccc(Cl)c3F)cc21)C1CC1 [Example 67, 2-[6-(3-Chloro-2-fluoro-phenyl)pyrazolo[4,3-b]pyridin-1-yl]-1-cyclopropyl-ethanone] | 16 nM
O=C(Cn1ncc2ncc(-c3ccc(F)c(Cl)c3)cc21)C1CC1 [Example 68, 2-[6-[3-Chloro-4-fluoro-phenyl)pyrazolo[4,3-b]pyridin-1-yl]-1-cyclopropyl-ethanone] | 7 nM
Cc1cc(-c2cnc3cnn(CC(=O)C4CC4)c3c2)ccc1F [Example 69, 1-Cyclopropyl-2-[6-(4-fluoro-3-methyl-phenyl)pyrazolo[4,3-b]pyridin-1-yl]ethanone] | 19 nM
Cc1cc(-c2cnc3cnn(CC(=O)C4CCC4)c3c2)ccc1F [Example 70, 1-Cyclobutyl-2-[6-(4-fluoro-3-methyl-phenyl)pyrazolo[4,3-b]pyridin-1-yl]ethanone] | 63 nM
Cc1cccc(-c2cnc3cnn(CC(=O)C4CC4)c3c2)c1F [Example 71, 1-Cyclopropyl-2-[6-(2-fluoro-3-methyl-phenyl)pyrazolo[4,3-b]pyridin-1-yl]ethanone] | 7 nM
Cc1cc(F)ccc1-c1cnc2cnn(CC(=O)C3CC3)c2c1 [Example 72, 1-Cyclopropyl-2-[6-(4-fluoro-2-methyl-phenyl)pyrazolo[4,3-b]pyridin-1-yl]ethanone] | 199 nM
O=C(Cn1ncc2ncc(-c3cccc(C(F)(F)F)c3F)cc21)C1CC1 [Example 73, 1-Cyclopropyl-2-[6-[2-fluoro-3-(trifluoromethyl)phenyl]pyrazolo[4,3-b]pyridin-1-yl]ethanone] | 43 nM
O=C(Cn1ncc2ncc(-c3ccc(F)c(C(F)(F)F)c3)cc21)C1CC1 [Example 74, 1-Cyclopropyl-2-[6-[4-fluoro-3-(trifluoromethyl)phenyl]pyrazolo[4,3-b]pyridin-1-yl]ethanone] | 36 nM
O=C(Cn1ncc2ncc(-c3ccc(Cl)c(C(F)(F)F)c3)cc21)C1CC1 [Example 75, 2-[6-[4-Chloro-3-(trifluoromethyl)phenyl]pyrazolo[4,3-b]pyridin-1-yl]-1-cyclopropyl-ethanone] | 76 nM
O=C(Cn1ncc2ncc(-c3ccc(F)c(C(F)F)c3)cc21)C1CC1 [Example 76, 1-Cyclopropyl-2-[6-[3-(difluoromethyl)-4-fluoro-phenyl]pyrazolo[4,3-b]pyridin-1-yl]ethanone] | 18 nM
O=C(Cn1ncc2ncc(-c3ccc(F)c(OC(F)F)c3)cc21)C1CC1 [Example 77, 1-Cyclopropyl-2-[6-[3-(difluoromethoxy)-4-fluoro-phenyl]pyrazolo[4,3-b]pyridin-1-yl]ethanone] | 14 nM
O=C(Cn1ncc2ncc(-c3ccc(F)c(F)c3F)cc21)C1CC1 [Example 79, 1-Cyclopropyl-2-[6-(2,3,4-trifluorophenyl)pyrazolo[4,3-b]pyridin-1-yl]ethanone] | 30 nM
COCCn1ncc2ncc(-c3ccc(F)c(C)c3)cc21 [Example 89, 6-(4-Fluoro-3-methyl-phenyl)-1-(2-methoxyethyl)pyrazolo[4,3-b]pyridine] | 754 nM
CCC(F)(F)Cn1ncc2ncc(-c3ccc(F)c(C(F)F)c3)cc21 [Example 98, 1-(2,2-Difluorobutyl)-6-[3-(difluoromethyl)-4-fluoro-phenyl]pyrazolo[4,3-b]pyridine] | 89 nM
CCC(F)(F)Cn1ncc2ncc(-c3ccc(F)c(OC(F)F)c3)cc21 [Example 99, 1-(2,2-Difluorobutyl)-6-[3-(difluoromethoxy)-4-fluoro-phenyl]pyrazolo[4,3-b]pyridine] | 213 nM
Cc1cc(-c2cnc3cnn(C[C@H](O)C4CC4)c3c2)ccc1F [Example 102, (R)-1-Cyclopropyl-2-[6-(4-fluoro-3-methyl-phenyl)pyrazolo[4,3-b]pyridin-1-yl]ethanol] | 109 nM
Cc1cc(-c2cnc3cnn(C[C@@H](O)C4CC4)c3c2)ccc1F [Example 103, (S)-1-Cyclopropyl-2-[6-(4-fluoro-3-methyl-phenyl)pyrazolo[4,3-b]pyridin-1-yl]ethanol] | 272 nM
Fc1ccc(-c2cnc3cnn(CC(F)(F)C4CC4)c3c2)cc1C(F)F [Example 108, 1-(2-Cyclopropyl-2,2-difluoro-ethyl)-6-[3-(difluoromethyl)-4-fluoro-phenyl]pyrazolo[4,3-b]pyridine] | 45 nM
Fc1ccc(-c2cnc3cnn(CC(F)(F)C4CC4)c3c2)cc1OC(F)F [Example 109, 1-(2-Cyclopropyl-2,2-difluoro-ethyl)-6-[3-(difluoromethoxy)-4-fluoro-phenyl]pyrazolo[4,3-b]pyridine] | 69 nM
